“And” between values parts separate entries of the source, which are not always exact repeats. Equal values may be shown once. Numbered stars: 1 amine (or outer) side, 2 acyl side, 3 side chain; on linkers, the order of the positions; unused ones are H or OH. Square brackets hold non-standard residues; d marks the D form. Peptide text beside a SMILES is read from it. * marks the point of attachment. C18 diacid = O=C(O)CCCCCCCCCCCCCCCCC(=O)*; γGlu = O=C(O)[C@H](CCC(=O)[*:2])N[*:1]; Conj‑Neu‑C18DA = not defined here; NMeL = CN[C@@H](CC(C)C)C(=O)O; hSer = N[C@@H](CCO)C(=O)O; Nle = CCCC[C@H](N)C(=O)O; AEEA = NCCOCCOCC(=O)O
How the values were obtained:
Assay in all cases: IP3 assay (inositol trisphosphate, 3H-myoinositol) in transiently transfected COS-7 cells
Assay type in all cases: cell-based
hNK3R = target: T1, hNK3R (Homo sapiens, UniProt P29371); settings: for hNK3, IP3 Efficacy / EC50: COS-7 cells; for hNK3, IP3 Efficacy: figure legends: percent of 10^-6 M NKA; for EC50: 0.2% ovalbumin buffer, read-out: hNK3, IP3 EC50
T1 construct: host or cells: COS-7
T1 sequence (P29371 1-465): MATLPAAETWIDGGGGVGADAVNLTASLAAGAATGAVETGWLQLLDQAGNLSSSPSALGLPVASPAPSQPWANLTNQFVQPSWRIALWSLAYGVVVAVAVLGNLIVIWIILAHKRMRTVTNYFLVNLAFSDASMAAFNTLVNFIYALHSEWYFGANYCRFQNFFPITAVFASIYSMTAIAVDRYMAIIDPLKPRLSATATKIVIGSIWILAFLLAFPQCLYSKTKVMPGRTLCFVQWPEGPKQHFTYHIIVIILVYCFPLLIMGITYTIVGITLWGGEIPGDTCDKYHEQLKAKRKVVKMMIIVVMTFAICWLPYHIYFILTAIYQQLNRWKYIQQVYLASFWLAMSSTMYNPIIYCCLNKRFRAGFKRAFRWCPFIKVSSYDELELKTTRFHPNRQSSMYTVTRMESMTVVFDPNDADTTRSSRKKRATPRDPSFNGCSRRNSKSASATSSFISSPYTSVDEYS
Procedure: (§1) Agonist-induced G-protein coupled receptor (GPCR) activation was measured by an Inositol-1,4,5-Trisphosphate [^3H] Radioreceptor Assay (IPs Assay). Assays were carried out using COS-7 cells transiently transfected by calcium phosphate transfection with a vector pcDNA3.1(+) encoding one of the indicated receptors (Genscript). Briefly, DNA mixed with CaCl2 (2 M) and TE-buffer (10 mM Tris-HCl, 1 mM EDTA, pH 7.5) was dropwise added to 2×HBS (50 mM HEPES, 280 mM NaCl, 1.5 mM NaH2PO4, pH 7.2) and incubated for 45 min at room temperature (22±2° C.). The mixture and a final concentration of 100 μM Chloroquine were added to the cells and left to incubate for 5 hours at 37° C. under standard cell culture conditions (10% CO2) before changing medium to fresh medium containing 5 μl/mL Myo-[2-^3H(N)]-inositol (labelling medium).
(§2) The IP3 assay takes advantage of the tachykinin receptors' ability to induce production of the inositol trisphosphate (IP3) second messenger upon agonist (ligand) binding on receptor expressing cells following an initial ^3H-inositol labelling period. In effect this means that production of the second messenger IP3 as a measure of receptor activity can be assessed by counting ^3H-activity.
(§3) Assay solutions used: Wash buffer (HBSS), Assay buffer (HBSS+10 mM LiCl and 0,2% w/v ovalbumin), Lysis buffer (10 mM formic acid), and SPA YSI beads (12.5 mg/ml in H2O). The assay was performed the day after transfection. Briefly, labelling medium was aspirated, and plates were washed ×1 in wash buffer before adding 100 μl assay buffer, pre-incubated for 30 min followed by 120 min incubation with agonist, both at 37° C. After incubation, plates were immediately placed on ice and the incubation medium was aspirated and 40 μl of 10 mM formic acid per well was added. Plates were incubated for at least 30 min on ice. 60 μl (1 mg/well) SPA YSI beads/well was pipetted into a solid white 96 wells plate and 35 μl of the lysis solution was transferred to the plate before covering plates with seal cover and shaking for 10 min. (max speed). Centrifuge plates and leave for 8 hours at room temperature before counting the plates in a MicroBeta plate counter (Perkin Elmer).

hNK2R = target: T2, hNK2R (Homo sapiens, UniProt P21452); settings: for EC50 / hNK2R, IP3 Efficacy: COS-7 cells; for EC50: 0.2% ovalbumin buffer; for hNK2R, IP3 Efficacy: figure legends: percent of 10^-6 M NKA
T2 construct: host or cells: COS-7
T2 sequence (P21452 1-398): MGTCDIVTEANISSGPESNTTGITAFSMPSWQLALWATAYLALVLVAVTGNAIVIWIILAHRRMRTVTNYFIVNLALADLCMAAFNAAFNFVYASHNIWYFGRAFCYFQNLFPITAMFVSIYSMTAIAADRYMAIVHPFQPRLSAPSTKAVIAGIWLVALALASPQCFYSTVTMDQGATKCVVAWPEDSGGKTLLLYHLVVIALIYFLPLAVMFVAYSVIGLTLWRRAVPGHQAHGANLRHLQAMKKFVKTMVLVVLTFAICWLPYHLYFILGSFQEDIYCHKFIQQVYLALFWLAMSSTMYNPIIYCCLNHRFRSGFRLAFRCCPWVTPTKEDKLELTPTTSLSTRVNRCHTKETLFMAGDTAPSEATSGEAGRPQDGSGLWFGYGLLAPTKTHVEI
Procedure: as §1, §2, §3

hNK1R = target: T3, hNK1R (Homo sapiens, UniProt P25103); settings: for EC50 / hNK1R, IP3 Efficacy: COS-7 cells; for EC50: 0.2% ovalbumin buffer; for hNK1R, IP3 Efficacy: figure legends: percent of 10^-6 M NKA
T3 construct: host or cells: COS-7
T3 sequence (P25103 whole entry): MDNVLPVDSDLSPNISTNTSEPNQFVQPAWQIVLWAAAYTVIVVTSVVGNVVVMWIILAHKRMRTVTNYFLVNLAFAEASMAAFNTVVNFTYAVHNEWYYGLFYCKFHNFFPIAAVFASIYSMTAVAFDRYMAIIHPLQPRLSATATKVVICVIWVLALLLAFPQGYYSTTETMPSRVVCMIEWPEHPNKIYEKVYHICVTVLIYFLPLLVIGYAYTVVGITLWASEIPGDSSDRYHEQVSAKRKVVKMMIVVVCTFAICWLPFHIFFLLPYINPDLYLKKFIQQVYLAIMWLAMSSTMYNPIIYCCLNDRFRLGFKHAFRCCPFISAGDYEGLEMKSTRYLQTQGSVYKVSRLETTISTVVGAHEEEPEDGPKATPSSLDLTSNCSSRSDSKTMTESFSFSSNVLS
Procedure: as §1, §2, §3

| hNK3, IP3 Efficacy (hNK3R) | EC50 (hNK2R) | hNK2R, IP3 Efficacy (hNK2R) | hNK1R, IP3 Efficacy (hNK1R) | EC50 (hNK3R) [nM] | Compound | EC50 (hNK1R) | hNK3R receptor activation, in words (hNK3R) | hNK2R receptor activation, in words (hNK2R) | hNK1R receptor activation, in words (hNK1R) |
| --- | --- | --- | --- | --- | --- | --- | --- | --- | --- |
| 0% | 4.5 nM | 46% | 0% | – | CCCC[C@H](NC(=O)[C@H](CC(C)C)NC(=O)[C@@H](CO)NC(=O)[C@@H](NC(=O)[C@H](Cc1ccccc1)NC(=O)[C@H](CCCCN)NC(=O)[C@H](CC(=O)O)NC(=O)COCCOCCNC(=O)COCCOCCNC(=O)CC[C@H](NC(=O)CCCCCCCCCCCCCCCCC(=O)O)C(=O)O)C(C)C)C(N)=O [compound 385, *Asp;Lys;Phe;Val;dSer;Leu;Nle;NH2] ({C18 diacid-γGlu-AEEA-AEEA}-DKFV[dS]L[Nle]-NH2) | – | – | – | – |
| 0% | 29 nM | 63% | 0% | – | CCCC[C@H](NC(=O)[C@H](CC(C)C)N(C)C(=O)CNC(=O)[C@H](CO)NC(=O)[C@H](Cc1ccc(O)cc1)NC(=O)[C@H](CCCCN)NC(=O)[C@H](CC(=O)O)NC(=O)COCCOCCNC(=O)COCCOCCNC(=O)CC[C@H](NC(=O)CCCCCCCCCCCCCCCCC(=O)O)C(=O)O)C(N)=O [compound 386, *Asp;Lys;Tyr;Ser;Gly;NmLeu;Nle;NH2] ({C18 diacid-γGlu-AEEA-AEEA}-DKYSG[NMeL][Nle]-NH2) | – | – | – | – |
| 100% | 3.3 nM | 100% | 100% | 34 | CCCC[C@H](NC(=O)[C@H](CC(C)C)N(C)C(=O)CNC(=O)[C@@H](NC(=O)[C@H](Cc1ccccc1)NC(=O)[C@H](CCCCN)NC(=O)[C@H](CC(=O)O)NC(=O)COCCOCCNC(=O)COCCOCCNC(=O)CC[C@H](NC(=O)CCCCCCCCCCCCCCCCC(=O)O)C(=O)O)[C@@H](C)O)C(N)=O [compound 387, *Asp;Lys;Phe;Thr;Gly;NmLeu;Nle;NH2] ({C18 diacid-γGlu-AEEA-AEEA}-DKFTG[NMeL][Nle]-NH2) | 5.5 nM | – | – | – |
| 100% and 60% | 2.8 nM and 2.9 nM | 83% and 80% | 108% and 100% | 35 | CCCC[C@H](NC(=O)[C@H](CC(C)C)NC(=O)CNC(=O)[C@@H](NC(=O)[C@H](Cc1ccccc1)NC(=O)[C@H](CCCCN)NC(=O)[C@H](CC(=O)O)NC(=O)COCCOCCNC(=O)COCCOCCNC(=O)CC[C@H](NC(=O)CCCCCCCCCCCCCCCCC(=O)O)C(=O)O)C(C)C)C(N)=O [compound 389, *Asp;Lys;Phe;Val;Gly;Leu;Nle;NH2] | 16 nM and 15 nM | – | – | – |
| 0% | 28 nM | 75% | 0% | – | CCCC[C@H](NC(=O)[C@H](CC(C)C)N(C)C(=O)CNC(=O)[C@@H](NC(=O)[C@H](Cc1ccccc1)NC(=O)[C@H](CCCCN)NC(=O)[C@H](CCC(=O)O)NC(=O)COCCOCCNC(=O)COCCOCCNC(=O)CC[C@H](NC(=O)CCCCCCCCCCCCCCCCC(=O)O)C(=O)O)[C@@H](C)O)C(N)=O [compound 397, *Glu;Lys;Phe;Thr;Gly;NmLeu;Nle;NH2] ({C18 diacid-γGlu-AEEA-AEEA}-EKFTG[NMeL][Nle]-NH2) | – | – | – | – |
| 0% | – | 0% | 0% | – | *Asp;Lys;Pro;Val;Gly;NmLeu;Nle;NH2 ({Conj‑Neu‑C18DA}-DKPVG[NMeL][Nle]-NH2; reading uncertain; also: printed as *Asp;Lys;Pro;Val;Gly;NmLeu;Nle;NH2) [compound 362, * is Conj-Neu-C18DA protractor on N-terminal α-amino group] | – | complete loss of receptor activation on NK1-3Rs | complete loss of receptor activation on NK1-3Rs | complete loss of receptor activation on NK1-3Rs |
| 0% | – | 0% | 0% | – | *Asp;Lys;Val;Tyr;Gly;NmLeu;Nle;NH2 ({Conj‑Neu‑C18DA}-DKVYG[NMeL][Nle]-NH2; reading uncertain; also: printed as *Asp;Lys;Val;Tyr;Gly;NmLeu;Nle;NH2) [compound 363, * is Conj-Neu-C18DA protractor on N-terminal α-amino group] | – | complete loss of receptor activation on NK1-3Rs | complete loss of receptor activation on NK1-3Rs | complete loss of receptor activation on NK1-3Rs |
| 0% | – | 0% | 0% | – | *Asp;Lys;dPhe;Val;Gly;NmLeu;Nle;NH2 (DKFVGLL; N-terminal Conj-Neu-C18DA protractor; C-terminal amide; (1)..(1) Conj-Neu-C18; MOD_RES (3)..(3) D-Phe; MOD_RES (6)..(6) N-methyl-Leucine; MOD_RES (7)..(7) AMIDATION; MOD_RES (7)..(7) Nle) [compound 356, * is Conj-Neu-C18DA protractor on N-terminal α-amino group] | – | – | completely destroys NK2R activation | – |

| Compound | hNK3, IP3 Efficacy (hNK3R) | EC50 (hNK2R) | hNK2R, IP3 Efficacy (hNK2R) | hNK1R, IP3 Efficacy (hNK1R) | EC50 (hNK3R) [nM] | EC50 (hNK1R) | hNK3R receptor activation, in words (hNK3R) | hNK2R receptor activation, in words (hNK2R) | hNK1R receptor activation, in words (hNK1R) |
| --- | --- | --- | --- | --- | --- | --- | --- | --- | --- |
| COCC[C@H](NC(=O)[C@H](CC(C)C)N(C)C(=O)CNC(=O)[C@@H](NC(=O)[C@H](Cc1ccc(O)cc1)NC(=O)[C@H](CCCCN)NC(=O)[C@H](CCC(=O)O)NC(=O)COCCOCCNC(=O)COCCOCCNC(=O)CC[C@H](NC(=O)CCCCCCCCCCCCCCCCC(=O)O)C(=O)O)C(C)C)C(N)=O [compound 382, *Glu;Lys;Tyr;Val;Gly;NmLeu;Metox;NH2] ({C18 diacid-γGlu-AEEA-AEEA}-EKYVG[NMeL][hSer](Me)-NH2) | 20% | 3.7 nM | 95% | 30% | – | ~3800 nM | – | – | – |
| COCC[C@H](NC(=O)[C@H](CC(C)C)N(C)C(=O)CNC(=O)[C@@H](NC(=O)[C@H](Cc1ccccc1)NC(=O)[C@H](CCCCN)NC(=O)[C@H](CC(=O)O)NC(=O)COCCOCCNC(=O)COCCOCCNC(=O)CC[C@H](NC(=O)CCCCCCCCCCCCCCCCC(=O)O)C(=O)O)C(C)C)C(N)=O [compound 384, *Asp;Lys;Phe;Val;Gly;NmLeu;Metox;NH2] ({C18 diacid-γGlu-AEEA-AEEA}-DKFVG[NMeL][hSer](Me)-NH2) | 85% | 0.9 nM | 95% | 80% | 10 | 16 nM | – | – | – |
